From ChEMBL document CHEMBL1156829 (Proc Natl Acad Sci U S A, 2008)

Columns and labels:
[1] = NOVARTIS: Cytotoxicity against human hepatocellular carcinoma cell line (Huh7); format: toxicity, cell-based, Huh-7; settings: Huh7 cells (hepatocellular carcinoma cell line)
Plasmodium falciparum [2] = test: NOVARTIS: Inhibition of Plasmodium falciparum W2 (drug-resistant) proliferation in erythrocyte-based infection assay; format: functional, organism-based; settings: Plasmodium falciparum, W2; read-out: EC50
Plasmodium falciparum [3] = test: NOVARTIS: Inhibition of Plasmodium falciparum 3D7 (drug-susceptible) proliferation in erythrocyte-based infection assay; format: functional, organism-based; settings: Plasmodium falciparum, 3D7

With `CCN1/C(=C/c2sc3cc(OC)c(OC)cc3[n+]2CC)C=Cc2ccccc21` the CC50 [1] was > 10 µM, the EC50 (Plasmodium falciparum [2]) was 0.104 µM and the EC50 (Plasmodium falciparum [3]) was 0.136 µM.
`CCOC(=O)c1[nH]c2ccccc2c1N=NN(C)C` showed a CC50 [1] of 36.1 µM, an EC50 (Plasmodium falciparum [2]) of 0.376 µM and an EC50 (Plasmodium falciparum [3]) of 0.128 µM.
In the case of `O=C(c1ccc([N+](=O)[O-])o1)N1CCN(c2cccc(Cl)c2)CC1`, the CC50 [1] is reported as > 100 µM, the EC50 (Plasmodium falciparum [2]) is reported as 1.04 µM and the EC50 (Plasmodium falciparum [3]) is reported as 6.33 µM.
With `COc1cc(C=NNC(=O)c2ccc(C(=O)NN=Cc3ccc(O)c(OC)c3)cc2)ccc1O` the CC50 [1] was > 100 µM, the EC50 (Plasmodium falciparum [2]) was 1.03 µM and the EC50 (Plasmodium falciparum [3]) was 0.652 µM.
`COc1nc(NC(=N)N)nc2ccc(C)cc12` showed a CC50 [1] of 58 µM, an EC50 (Plasmodium falciparum [2]) of 0.608 µM and an EC50 (Plasmodium falciparum [3]) of 0.88 µM.
`Fc1ccccc1CCNc1ncnc2c1[nH]c1ccccc12` showed a CC50 [1] of 14.3 µM, an EC50 (Plasmodium falciparum [2]) of 0.15 µM and an EC50 (Plasmodium falciparum [3]) of 0.165 µM.
In the case of `CN1CCN(c2nc(NN=Cc3cc(Br)c(O)cc3O)nc(Nc3ccc([N+](=O)[O-])cc3)n2)CC1`, the CC50 [1] is reported as > 10 µM, the EC50 (Plasmodium falciparum [2]) is reported as 0.104 µM and the EC50 (Plasmodium falciparum [3]) is reported as 0.321 µM.
For `CCOC(=O)c1c(NC(=O)c2ccc([N+](=O)[O-])cc2[N+](=O)[O-])sc2c1CCCC2`, the CC50 [1] was > 100 µM, the EC50 (Plasmodium falciparum [2]) was 1.04 µM and the EC50 (Plasmodium falciparum [3]) was > 12.5 µM.
In the case of `Cc1c(-c2ccc(Cl)cc2)[n+]2c(n1-c1ccccc1)SCCC2`, the CC50 [1] is reported as > 100 µM, the EC50 (Plasmodium falciparum [2]) is reported as 1.04 µM and the EC50 (Plasmodium falciparum [3]) is reported as 1.15 µM.
In the case of `O=C1[C@@H]2Cc3c([nH]c4ccccc34)C(CCc3ccccc3)N2C(=O)CN1CCc1c[nH]c2ccccc12` (stereo partly specified), the CC50 [1] is reported as > 100 µM, the EC50 (Plasmodium falciparum [2]) is reported as 1.05 µM and the EC50 (Plasmodium falciparum [3]) is reported as 2.81 µM.
In the case of `COc1cc(NC(C)=C2C(=O)c3ccccc3C2=O)c(OC)cc1Cl`, the CC50 [1] is reported as > 100 µM, the EC50 (Plasmodium falciparum [2]) is reported as 1.04 µM and the EC50 (Plasmodium falciparum [3]) is reported as 2.4 µM.
With `CCCCN(CC(=O)Nc1cc(C(C)(C)C)nn1-c1ccc(Cl)cc1)C(=O)c1ccc(OC)cc1` the CC50 [1] was 5.08 µM, the EC50 (Plasmodium falciparum [2]) was 0.0527 µM and the EC50 (Plasmodium falciparum [3]) was > 1.39 µM.
With `O=C(Nc1ccc(C2=NCCN2)c(Cl)c1)c1cccc(C(=O)Nc2ccc(C3=NCCN3)c(Cl)c2)c1` the CC50 [1] was > 10 µM, the EC50 (Plasmodium falciparum [2]) was 0.103 µM and the EC50 (Plasmodium falciparum [3]) was 0.307 µM.
Molecule `COC(=O)c1cccc(-c2cc(Cl)c3c(c2)CC(CNC(=O)c2c(C)noc2C)O3)c1` (stereo unspecified) has a CC50 [1] of 75.9 µM, an EC50 (Plasmodium falciparum [2]) of 0.786 µM and an EC50 (Plasmodium falciparum [3]) of 0.881 µM.
For `CC(C)(C)CC(C)(C)Nc1c(-c2ccccc2OC(=O)C2CCC2)nc2ccccn12`, the CC50 [1] was > 10 µM, the EC50 (Plasmodium falciparum [2]) was 0.104 µM and the EC50 (Plasmodium falciparum [3]) was 0.729 µM.
With `OC(CCN1CCN(C(c2ccccc2)c2ccccc2)CC1)c1ccccc1` (stereo unspecified) the CC50 [1] was > 100 µM, the EC50 (Plasmodium falciparum [2]) was 1.03 µM and the EC50 (Plasmodium falciparum [3]) was 4.65 µM.
In the case of `CN(C)c1nnc(C(C#N)=Cc2cc(C(=O)c3cccc(Cl)c3)cn2C)o1`, the CC50 [1] is reported as > 100 µM, the EC50 (Plasmodium falciparum [2]) is reported as 1.03 µM and the EC50 (Plasmodium falciparum [3]) is reported as > 12.5 µM.
In the case of `Clc1ccc2c(N3CCC(n4cccc4)CC3)ccnc2c1`, the CC50 [1] is reported as > 100 µM, the EC50 (Plasmodium falciparum [2]) is reported as 1.05 µM and the EC50 (Plasmodium falciparum [3]) is reported as 1.02 µM.
In the case of `CCN(CC)CCN1C(=O)c2ccccc2NC1c1ccc(C)cc1` (stereo unspecified), the CC50 [1] is reported as > 100 µM, the EC50 (Plasmodium falciparum [2]) is reported as 1.05 µM and the EC50 (Plasmodium falciparum [3]) is reported as 0.858 µM.
In the case of `Cc1ccc(-c2nc3ncccc3o2)cc1NC(=O)COc1ccc(C(C)(C)C)cc1`, the CC50 [1] is reported as > 100 µM, the EC50 (Plasmodium falciparum [2]) is reported as 1.05 µM and the EC50 (Plasmodium falciparum [3]) is reported as 0.42 µM.
For `CCOc1ccc2[nH]c(=O)c(C(c3nnnn3CCOC)N3CCCC3)cc2c1` (stereo unspecified), the CC50 [1] was > 100 µM, the EC50 (Plasmodium falciparum [2]) was 1.05 µM and the EC50 (Plasmodium falciparum [3]) was > 12.5 µM.
With `COc1ccc(OC)c(-c2ccc(O)c(CNCCc3cccc(F)c3)c2)c1` the CC50 [1] was > 10 µM, the EC50 (Plasmodium falciparum [2]) was 0.106 µM and the EC50 (Plasmodium falciparum [3]) was 0.675 µM.
Work on `COc1ccc(CCN2C(=O)N(CCN(C)C)C(=O)C23CCN(Cc2ccc(O)cc2)CC3)cc1` yielded a CC50 [1] of 78.5 µM, an EC50 (Plasmodium falciparum [2]) of 0.828 µM and an EC50 (Plasmodium falciparum [3]) of 0.221 µM.
For `C=CCn1c(COc2ccccc2C)nnc1SCC(=O)O`, the CC50 [1] was > 100 µM, the EC50 (Plasmodium falciparum [2]) was 1.05 µM and the EC50 (Plasmodium falciparum [3]) was > 12.5 µM.
In the case of `C=C[C@H]1CN2CC[C@H]1C[C@@H]2[C@@H](OC(=O)c1ccco1)c1ccnc2ccccc12`, the CC50 [1] is reported as > 10 µM, the EC50 (Plasmodium falciparum [2]) is reported as 0.104 µM and the EC50 (Plasmodium falciparum [3]) is reported as 0.149 µM.
Work on `CC(=O)N(C1=C(N2CCOCC2)C(=O)c2ccccc2C1=O)c1ccc(Br)cc1` yielded a CC50 [1] of 19.1 µM, an EC50 (Plasmodium falciparum [2]) of 0.2 µM and an EC50 (Plasmodium falciparum [3]) of 0.239 µM.
With `CC(C)(C)NCC(O)Cn1c2ccc(I)cc2c2cc(I)ccc21` (stereo unspecified) the CC50 [1] was 6.09 µM, the EC50 (Plasmodium falciparum [2]) was 0.064 µM and the EC50 (Plasmodium falciparum [3]) was 0.608 µM.
